Results published in PMC12461331, “Screening of Medicines for Malaria Venture Open Boxes Identifies Potent SARS-CoV‑2 Papain-like Protease (PL^pro) Inhibitors” (ACS Omega, 2025).
Values joined by “and” are separate entries in the source; they are usually repeats but may differ in a detail not shown here. Identical values can stand only once. Counter-ions that a name gives are not always drawn. Like-named read-outs stand apart in the source and are kept apart here.

Assays:
[1] = female, BALB/c, mouse, 1 h, 2 μM, pH 7.4
SARS-CoV-2 [2] = test: microbe, parasite or virus in culture; conditions: for AC50: Severe acute respiratory syndrome coronavirus 2, HeLa-ACE2, read-out: Log AC50 (converted)
HeLa-ACE2 cells [3] = test: cells; conditions: Homo sapiens; for AC50: HeLa-ACE2, read-out: Log AC50 (converted)
physchem [4] = conditions: 25 °C, kinetic from dmso stock
physchem [5] = conditions: pH 7.4
SARS-CoV-2 [6] = conditions: for CoV2 Efficacy (delta S0:Sinf): HeLa-ACE2; for Data Mode: Hela-ACE2 % Positive SARS-CoV-2; for S0 / Sinf / nHill: Hela-ACE2 % Positive SARS-CoV-2, curve fit; for SI (average CC50/average EC50): supplement summary
in vitro [7] = conditions: PAMPA
HeLa-ACE2 cells [8] = conditions: for Data Mode / S0 / Sinf / nHill: Hela-ACE2 CoV-2 Total Cell count; for S0 / Sinf / nHill: curve fit; for HeLa-ACE2 Total Cell Efficacy (Sinf, note + or -): infected HeLa-ACE2 total cell count
[9] = Human liver microsomal stability assay; conditions: human, liver microsomes, pH 7.4
in vitro [10] = conditions: human, microsomes, pH 7.4
in vitro [11] = conditions: CD1, mouse, microsomes, pH 7.4
[12] = Mouse liver microsomal stability assay; conditions: CD1, mouse, liver microsomes, pH 7.4
PL^pro = PL^pro (Severe acute respiratory syndrome coronavirus 2, UniProt P0DTD1); conditions: 20 μM compound, 5 μM enzyme, average of triplicates with SD
[13] = test system: uninfected HeLa-ACE2 cells; conditions: Hela-ACE2 Uninfected Cell Toxicity; for qAC50: relation in column qAC50 Mode, unit not given; for S0 / Sinf / nHill: curve fit
in vitro [14] = conditions: human, uninfected HeLa-ACE2 cells
Plasma stability = conditions: female, BALB/c, mouse, plasma, pH 7.4
[15] = HeLa-ACE2, read-out: HeLa-ACE2 Total cells EC50
[16] = uninfected HeLa-ACE2 CC50, supplement summary
[17] = Severe acute respiratory syndrome coronavirus 2, HeLa-ACE2, read-out: CoV-2 EC50
[18] = Severe acute respiratory syndrome coronavirus 2, HeLa-ACE2, read-out: qAC50

Row | Structure (SMILES) | plasma stability remaining 60 min [1] [%] | AC50 (SARS-CoV-2 [2]) [nM] | EC50 (HeLa-ACE2 cells [3]; [15]) [nM] | EC50 (HeLa-ACE2 cells [3]; HeLa-ACE2, read-out: qAC50) [nM] | solubility kinetic at 24 h (physchem [4]; pH 2, aqueous buffer) [µg/mL] | solubility kinetic at 24 h (physchem [4]; pH 7.4, aqueous buffer) [µg/mL] | chromatographic logD (physchem [5]) | CoV2 Efficacy (delta S0:Sinf) (SARS-CoV-2 [6]) | Data Mode (SARS-CoV-2 [6]) | S0 (SARS-CoV-2 [6]) | Sinf (SARS-CoV-2 [6]) | nHill (SARS-CoV-2 [6]) | Papp at 5 h, 10 μM (in vitro [7]) [×10⁻⁶ cm/s] | Data Mode (HeLa-ACE2 cells [8]) | half-life at 0.5 μM [9] [min] | microsomal CLint at 0.5 μM (in vitro [10]) [µL/min/mg] | microsomal CLint at 0.5 μM (in vitro [11]) [µL/min/mg] | half-life at 0.5 μM [12] [min] | ΔT m (PL^pro) | half-life at 2 μM (Plasma stability) [h] | further results
1 | C[C@@H](c1cccc2ccccc12)N1CCC(C(=O)NCc2ccncc2)CC1 (racemic) [Compound 10] | 97.19 | > 9610 | > 9610 | > 9610 | > 17.3 | > 31 | 3.32 | 103.533 | decreasing (weakly active) | 3.533 | -100 | 4 | 1.01 | inactive | 36.7 | 75.6 | 110 | 25.3 | 4.65 °C and 4.6 ± 0.1 °C | – | EC50 (SARS-CoV-2 [2]; Severe acute respiratory syndrome coronavirus 2, HeLa-ACE2, read-out: SARS-CoV-2 EC50, HeLa-ACE2 cells, average of triplicates): > 9610 nM; EC50 (SARS-CoV-2 [2]; Severe acute respiratory syndrome coronavirus 2, HeLa-ACE2, read-out: qAC50, Hela-ACE2 % Positive SARS-CoV-2, relation in column qAC50 Mode, unit inferred): > 9610 nM; Data Mode [13]: inactive; qAC50 [13]: > 3.984e-5; CC50 at 24 h (in vitro [14]; [16]): > 39800 nM; CC50 at 24 h (in vitro [14]; uninfected HeLa-ACE2 CC50, uninfected HeLa-ACE2 cells, average of triplicates): > 39800 nM
2 | COc1ccc(CNC(=O)[C@@H]2CCN([C@H](C)c3cccc4ccccc34)C2)cc1 (stereo in doubt) [Compound 18] | 56.69 | – | – | – | > 25.2 | > 19.8 | 4.24 | – | – | – | – | – | 0.56 | – | 13.1 | 212 | 582 | 4.76 | – | 7.7 | –
3 | Cc1cccc(/C=N/Nc2cc(N3CCOCC3)nc(OCCc3ccccn3)n2)c1 [Apilimod, reference compound] | – | 25.6 | > 2400 | > 2400 | – | – | – | 96.257 | decreasing | 0.02088 | -96.2358 | 1.796 | – | inactive | – | – | – | – | – | – | EC50 (SARS-CoV-2 [2]; [17]): 26 nM; EC50 (SARS-CoV-2 [2]; [18]): 25.6 nM; SI (average CC50/average EC50) (SARS-CoV-2 [6]): 222.534; Data Mode [13]: decreasing; S0 [13]: -7.369; Sinf [13]: -100; nHill [13]: 1.671; qAC50 [13]: 5.705e-6; AC50 at 24 h (in vitro [14]): 5700 nM; CC50 at 24 h (in vitro [14]; [16]): 5700 nM
4 | COc1ccc(CNC(=O)C2CCN(Cc3cccc4ccccc34)CC2)cc1 [Compound 1] | 43.36 | – | – | – | > 24.9 | > 21.8 | 4.18 | – | – | – | – | – | 1 | – | 23.7 | 117 | 146 | 18.9 | 0.40 ± 0.08 °C | 4.44 | –
5 | COc1ccc(CC(=O)NC2CCN([C@@H](C)c3cccc4ccccc34)CC2)cc1 [Compound 7] | 95.21 | – | – | – | > 24.8 | > 15.9 | 4.27 | – | – | – | – | – | 1.03 | – | 13.5 | 205 | 378 | 7.33 | – | 116 | –
6 | COc1ccc(CNC(=O)[C@@H]2CCN([C@@H](C)c3cccc4ccccc34)C2)cc1 [Compound 15] | 79.94 | – | – | – | > 23.9 | > 19.1 | 4.24 | – | – | – | – | – | 0.46 | – | 16.1 | 173 | 742 | 3.74 | 0.40 ± 0.06 °C | 19.3 | –
7 | COc1ccc(CNC(=O)[C@H]2CCN([C@H](C)c3cccc4ccccc34)C2)cc1 [Compound 16] | 88.71 | – | – | – | > 24.6 | > 19.5 | 4.24 | – | – | – | – | – | 0.53 | – | 10.9 | 254 | 267 | 10.4 | 0.40 ± 0.08 °C | 28.9 | –
8 | COc1ccc(C[C@H](N)C(=O)N[C@H]2[C@@H](O)[C@H](n3cnc4c(N(C)C)ncnc43)O[C@@H]2CO)cc1 [Puromycin dihydrochloride, reference compound] | – | 381 | 1140 | 1140 | – | – | – | 109.643 | decreasing | 10.0167 | -99.6259 | 4 | – | decreasing | – | – | – | – | – | – | EC50 (SARS-CoV-2 [2]; [17]): 381 nM; EC50 (SARS-CoV-2 [2]; [18]): 381 nM; AC50 (HeLa-ACE2 cells [3]): 1140 nM; SI (average CC50/average EC50) (SARS-CoV-2 [6]): 1.518; S0 (HeLa-ACE2 cells [8]): -17.6223; Sinf (HeLa-ACE2 cells [8]): -98.1852; nHill (HeLa-ACE2 cells [8]): 4; HeLa-ACE2 Total Cell Efficacy (Sinf, note + or -) (HeLa-ACE2 cells [8]): 4.000; Data Mode [13]: decreasing; S0 [13]: -1.04; Sinf [13]: -99.1112; nHill [13]: 3.073; qAC50 [13]: 5.784e-7; AC50 at 24 h (in vitro [14]): 578 nM; CC50 at 24 h (in vitro [14]; [16]): 578 nM
9 | CCC(CC)COC(=O)[C@H](C)N[P@](=O)(OC[C@H]1O[C@@](C#N)(c2ccc3c(N)ncnn23)[C@H](O)[C@@H]1O)Oc1ccccc1 [Remdesivir, reference compound] | – | 95.2 | 102 | 102 | – | – | – | 101.769 | decreasing | 1.9121 | -99.8572 | 1.898 | – | increasing | – | – | – | – | – | – | EC50 (SARS-CoV-2 [2]; [17]): 95 nM; EC50 (SARS-CoV-2 [2]; [18]): 95.2 nM; AC50 (HeLa-ACE2 cells [3]): 102 nM; SI (average CC50/average EC50) (SARS-CoV-2 [6]): 22.589; S0 (HeLa-ACE2 cells [8]): -15.3429; Sinf (HeLa-ACE2 cells [8]): 34.6571; nHill (HeLa-ACE2 cells [8]): 2.142; HeLa-ACE2 Total Cell Efficacy (Sinf, note + or -) (HeLa-ACE2 cells [8]): 2.142; Data Mode [13]: decreasing; S0 [13]: 13.7985; Sinf [13]: -53.8717; nHill [13]: 1.539; qAC50 [13]: 2.1501e-6; AC50 at 24 h (in vitro [14]): 2150 nM; CC50 at 24 h (in vitro [14]; [16]): 2150 nM
